# Assay results as given in article PMC10587159, “Biosynthesis and engineering of the nonribosomal peptides with a C-terminal putrescine” (Nature Communications, 2023).
# “Also recorded” adds a separate entry of the source. Non-standard residues stand in square brackets, D forms with d. Residues, ends and D or L forms follow the SMILES beside them. *: point of attachment. Myristoyl = CCCCCCCCCCCCCC(=O)*; NH(CH2)4NH2 = NCCCCN*
# Columns and labels:
# [1] = tested on: S. brevitalea DSM 7029 wild type; assay: Growth curve of DSM 7029 wild type with compounds (Bioscreen C); type: cell-based, Schlegelella brevitalea DSM 7029; conditions: CYMG medium; for effect on growth of DSM 7029 wild type in words: compound 0.1 μg/μL, OD600 every hour for 42 h, Bioscreen C
# Experimental: (§1) The growth curve was tested by Bioscreen C (Labsystems, Finland) as follow. Overnight culture was inoculated into 400 μL fresh CYMG medium in the ratio of 1:100 (the concentration of compounds was 0.1 μg/μL) and shook in normal speed. The OD600 value was gained in every hour for 42 h in total. Biofilm formation was measured at 18 h and 36 h respectively, as reported previously. In brief, the free-floating cells were removed, and the microtitre plate was washed with PBS (pH 7.4) after incubation for 18 h and 36 h. The biofilm was stained by adding 200 µL of crystal violet (0.1%) solution. Crystal violet solution was removed after 15 min and 200 µL of ethanol (95%) was added. The absorbance at OD600 was read using a microplate reader (Infinite M200, Tecan, Männedorf, Switzerland). Meanwhile, free-floating cells were used to test the secretion of pigment. The bacteria were removed and the supernatant was measured at OD600.
# [2] = tested on: S. brevitalea DSM 7029 wild type; assay: Biofilm formation of DSM 7029 wild type with compounds (crystal violet); type: cell-based, Schlegelella brevitalea DSM 7029; conditions: for effect on biofilm formation of DSM 7029 wild type in words: crystal violet staining
# Experimental: as §1
# [3] = Chemical stability of 1 in MeOH (oxidation to 2); type: physicochemical; conditions: purified 1 dissolved in MeOH for 3 days
# [4] = tested on: human breast adenocarcinoma cells MCF7; assay: cells; type: cell-based; conditions: 24 h
# Text: (§2) The two human acute lymphoblastic leukemia cells K562 and Kasumi, two human breast adenocarcinoma cells MCF7 and MDA-MB-231, human hepatoma cell HepG-2, human lung adenocarcinoma cell A549, human gastric cancer cell SGC-7901, human colon cancer cell HCT-116, human ovarian cancer cell line SKOV3, or human lung epithelial normal cell 2B were obtained from Beyotime Biotechnology and utilized to test the cytotoxicity of compounds by MTT assays as previous study. The anti-inflammatory effect of the compounds was detected by the influence on the increase in the level of nitric oxide caused by lipopolysaccharide (LPS) based on the classic Griess method. RAW 264.7 cells (Shanghai Institutes for Biological Science) were seeded in 96-well plates and incubated for 24 h. Then, cells were treated with compounds 29, 29a, 31, and 31a (0-80 μM) for 30 min, followed by co-treatment with LPS ([…]) for another 24 h. The Nitric Oxide assay kit with Griess reagents (Beyotime, Lot: S0021, Shanghai, China) was used to examine cellular supernatant nitrite accumulation, which represents cellular NO levels. The OD value of 540 nm absorbance was detected with a microplate reader. Their authentication in the laboratory was performed regularly based on morphology and gene/protein expression. The tested micro-organisms including Gram-negative bacteria E. coli ATCC 35218 and Pseudomonas aeruginosa ATCC 27853, and Gram-positive bacteria Staphylococcus aureus ATCC 29213 and B. subtilis ATCC 6633, and fungi Candida albicans, Rhizoctonia solani and Aspergillus fumigatus were treated with different concentrations of compounds (1 μM, 10 μM, 100 μM) using Bauer-Kirby disk diffusion method to evaluate the antimicrobial activities.
# [5] = tested on: human breast adenocarcinoma cells MDA-MB-231; assay: cells; type: cell-based; conditions: 24 h
# Text: as §2
# [6] = tested on: human acute lymphoblastic leukemia cells K562; assay: cells; type: cell-based; conditions: 24 h
# Text: as §2
# [7] = tested on: human lung epithelial normal cell 2B; assay: cells; type: cell-based; conditions: 24 h
# Text: as §2
# [8] = tested on: human gastric cancer cell SGC-7901; assay: cells; type: cell-based; conditions: 24 h
# Text: as §2
# [9] = tested on: human hepatoma cell HepG-2; assay: cells; type: cell-based; conditions: 24 h
# Text: as §2
# [10] = tested on: human colon cancer cell HCT-116; assay: cells; type: cell-based; conditions: 24 h
# Text: as §2
# [11] = tested on: human lung adenocarcinoma cell A549; assay: MTT cytotoxicity assay, A549; type: cell-based; conditions: for IC50: 24 h; for cytotoxic / antitumor activity against A549 in words: MTT assay
# Text: as §2
# [12] = tested on: human cells Kasumi; assay: MTT cytotoxicity assay, Kasumi; type: cell-based; conditions: for IC50: 24 h
# Text: as §2
# [13] = tested on: methionyl-tRNA formyltransferase (Fmt); assay: In vitro transformylation assay with Fmt; type: biochemical, Schlegelella brevitalea DSM 7029; conditions: 1 mM substrate, 25 μM Fmt, 1.5 mM N5,N10-methenylH4F, 50 mM HEPES pH 7.5, 30 °C, 4 h
# Experimental: The in vitro assay of formyltransferase was tested. In brief, the formyl-donor co-substrate intermediate N^5, N^10-methenylH4F was first synthesized as follow: 14 mg of N^5-fH4F was dissolved in 3 mL of water and was converted to N^5, N^10-methenylH^4F through addition of 0.1 M HCl, until pH 1.9 was reached. The solution was then brought to a final volume of 4.4 mL with water and continually incubated at room temperature for 4 h. Then, the transformylation assay was setup in a 50 μL volume, in the presence of 50 mM HEPES buffer pH 7.5, 1 mM substrates (compounds 1, 1a, 13a), 1.5 mM N^5, N^10-methenylH4F, and 25 μM Fmt (35 kDa). Before the addition of the compounds and the enzyme, the intermediate N^5, N^10-methenylH4F was preincubated in the reaction buffer at 30 °C for 30 min, to permit the final pH-dependent conversion to N^10-fH4F. After the addition of the compounds and the enzyme, the reaction was allowed to proceed for 4 h at 30 °C, then ceased by the addition of 2 μL FA, and analyzed via HPLC‒MS. The condition for 1: 0–3 min, 20% ACN; 3–18 min, 20–60% ACN; 18.1 min, 95% ACN; 18.1–22 min, 95% ACN; 22.1 min, 20% ACN; 22.1–25 min, 20% ACN, ACN and H2O contained 0.1% FA; detection by UV spectroscopy at 200–400 nm. […]
# [14] = tested on: HepG2 cells; assay: Cell numbers of HepG2 after compound treatment; type: cell-based, human; conditions: HepG2, 1.5 × 10^5 cells/well plated, compound 5 μg/mL, 3 h; mean of n = 3
# Experimental: (§3) Comparing the concentration of compounds (7, 10, 10a) in extracellular and intracellular after the HepG2 cell line dealt with compounds. HepG2 cells were plated in six-well plates at a density of 1.5 × 10^5 cells/well and grew overnight. After cell treated with compounds (5 μg/mL) for 3 h, the compounds were extracted with MeOH for cells culture medium and cells separately as followed the reported method. The compounds were quantified by LC‒MS (5%‒95% ACN in 15 min). The cell numbers of HepG2 with the compounds treatments was determined. […]
# (§4) To determine whether the difference in bioactivity of products (with or without Put moiety) is due to variations in cellular uptake, we treated hepatoma cell line HepG2 with compounds 7 (C12 acyl), 10 (C14 acyl), and 10a (C14 acyl and without Put) (Supplementary Fig. 33c). The cells were treated for 3 h, and then culture medium and cells were extracted separately. LC-MS was used to detect and quantify the compounds.
# (§5) At lower concentrations (5000 ng/mL, and 10,000 ng in total for each group), and […]
# (§6) may be contributing to the differences in antitumor activity (Supplementary Fig. 33b).
# (§7) This could be due to differences in the speed of cellu lar uptake or differences in drug metabolism rate, requiring further experimental investigation.
# [15] = tested on: HepG2 cells; assay: Extracellular and intracellular compound in HepG2 cells (LC-MS); type: in vitro ADME, human; conditions: 3 h; for Intracellular compound, Average / Extracellular compound, Average: HepG2, six-well plates, 5 μg/mL (10,000 ng in total), mean of n = 3; for Intracellular compound, Average: cells extracted with MeOH; for Extracellular compound, Average: culture medium extracted with MeOH
# Experimental: as §3, §4, §5, §6, §7
# [16] = tested on: native host DSM 7029; assay: Inhibition zone test on the native host DSM 7029; type: cell-based, Schlegelella brevitalea DSM 7029; conditions: same method as for the seven tested strains
# Text: as §2, with “The tested micro-organisms including Gram-negative bacteria E. coli ATCC 35218 and Pseudomonas aeruginosa ATCC 27853, and Gram-positive bacteria Staphylococcus aureus ATCC 29213 and B. subtilis ATCC 6633, and fungi Candida albicans, Rhizoctonia solani and Aspergillus fumigatus were treated with different concentrations of compounds (1 μM, 10 μM, 100 μM) using Bauer-Kirby disk diffusion method to evaluate the antimicrobial activities.” left out
# [17] = tested on: tumor lines; assay: MTT cytotoxicity assay, statements on the whole panel; type: cell-based, human; conditions: MTT assay, panel of tumor cell lines
# Text: as §2
# [18] = Solubility in solvents (observation); type: physicochemical; conditions: observation in water, methanol, acetonitrile, DMSO
# Text: Putrescine is also a precursor of some specialized compounds, such as industrial polyamide nylon 4,6[33] and siderophore alcaligin[55]. To clarify the function of the Put moiety of glidonins, we synthesized lipopeptide 10a without the Put group.
# [19] = relative to wild type treated with H2O = 100%, crystal violet 0.1%, OD600, mean of n = 3
Structure (SMILES),effect on growth of DSM 7029 wild type in words [1],effect on biofilm formation of DSM 7029 wild type in words [2],IC50 [4],IC50 [5],IC50 [6],IC50 [7],IC50 [8],IC50 [9],IC50 [10],IC50 [11],cytotoxic / antitumor activity against A549 in words [11],IC50 [12],"Intracellular compound, Average [15]","Extracellular compound, Average [15]",solubility in words [18],further results
"CSCC[C@@H](N)C(=O)N[C@H](CC(N)=O)C(=O)N1CCC[C@H]1C(=O)N[C@H](C(=O)N[C@H](Cc1ccccc1)C(=O)N1CCC[C@H]1C(=O)N[C@@H](Cc1c[nH]c2ccccc12)C(=O)N[C@@H](C(=O)N[C@@H](C)C(=O)N[C@H](C)C(=O)N[C@@H](CO)C(=O)N[C@@H](C)C(=O)NCCCCN)C(C)C)C(C)C [Compound 1, Glidonin A] (H-[dM][dN]PV[dF]PW[dV]A[dA]SA-{NH(CH2)4NH2})",no effect,less effect on biofilm formation,> 20 µM,> 20 µM,> 20 µM,> 20 µM,> 20 µM,> 20 µM,> 20 µM,7.2 ± 0.79 µM,moderate activities,18.3 ± 1.22 µM,–,–,–,"biofilm formation 18 h, Average [2, 19]: 98.1978%; biofilm formation 36 h, Average [2, 19]: 87.2902%; chemical stability: change of 1 to the Met(O) product 2 [3]: without changing to 2; cytotoxic activity against Kasumi in words ([12]; MTT assay): moderate activities; formylation by Fmt, formyl product by HPLC-MS [13]: higher than control"
"CCCCCCCCCCCCCC(=O)N[C@H](CCSC)C(=O)N[C@H](CC(N)=O)C(=O)N1CCC[C@H]1C(=O)N[C@H](C(=O)N[C@H](Cc1ccccc1)C(=O)N1CCC[C@H]1C(=O)N[C@@H](Cc1c[nH]c2ccccc12)C(=O)N[C@@H](C(=O)N[C@@H](C)C(=O)N[C@H](C)C(=O)N[C@@H](CO)C(=O)N[C@@H](C)C(=O)NCCCCN)C(C)C)C(C)C [Compound 10, Glidonin J] (Myristoyl-[dM][dN]PV[dF]PW[dV]A[dA]SA-{NH(CH2)4NH2})",weak inhibition of growth; also recorded: obviously inhibit the growth,increased biofilm formation,> 20 µM,7.2 ± 0.79 µM,7.2 ± 0.79 µM,11.8 ± 0.15 µM,> 20 µM,6.68 µM,> 20 µM,7.15 ± 0.47 µM,–,1.39 µM,6.078 ng,1078.84 ng,"easily soluble in water, methanol and acetonitrile","OD600 of wild type DSM 7029 with addition of compounds ([1]; control OD600 0.6): 0.4; The cell numbers, Average [14]: 1303333; total quantities (intracellular plus extracellular) in words ([15]; HepG2, 5000 ng/mL, compared to 10a): lower total quantities; inhibition of native host DSM 7029, inhibition zone method [16]: no inhibition; cytotoxic / antitumor activity in words [17]: broad-spectrum cytotoxicity"
CCCCCCCCCCCCCC(=O)N[C@H](CCSC)C(=O)N[C@H](CC(N)=O)C(=O)N1CCC[C@H]1C(=O)N[C@H](C(=O)N[C@H](Cc1ccccc1)C(=O)N1CCC[C@H]1C(=O)N[C@@H](Cc1c[nH]c2ccccc12)C(=O)N[C@@H](C(=O)N[C@@H](C)C(=O)N[C@H](C)C(=O)N[C@@H](CO)C(=O)N[C@@H](C)C(=O)O)C(C)C)C(C)C [Compound 10a] (Myristoyl-[dM][dN]PV[dF]PW[dV]A[dA]SA-OH),–,–,–,–,–,> 20 µM,–,> 20 µM,–,> 20 µM,lower than those of 10,–,11.984 ng,7245.41 ng,soluble only in dimethyl sulfoxide (DMSO),–
